From patent US20120238599A1, “HETEROCYCLIC COMPOUNDS AS MEK INHIBITORS” (CHEMIZON, A DIVISION OF OPTOMAGIC CO., LTD., priority 2011, published 2012)

What was measured:
Mek1 = biological target: T1, Mek1 (Homo sapiens, UniProt Q02750); assay: Mek1 kinase assay (LANCE), enzymatic activity; format: biochemical; details: Mek1 0.25 nM, 50 μM ATP, 2 nM inactive Erk1, 90 min at 23° C.
T1 construct: purchased Millipore
Procedure: A Mek1 kinase assay (LANCE, PerkinElmer) was developed for supporting compound profiling and lead optimization. […] Then the phosphorylated Erk1 was able to phosphorylate ULight™-MBP peptide (PerkinElmer). The phosphorylated peptide was detected by Europium-anti-phospho-MBP (PerkinElmer). […] After quenching the reaction, 2 nM Europium-anti-phospho-MBP was added to the reaction mixture and incubated for 60 min, followed by a detection using EnVision. The IC50 values were derived through a curve fitting using GraFit.

MEK = assay: Cell-based mechanism assay in A375 cell line, MEK inhibition detected by reduced ERK phosphorylation (AlphaScreen SureFire); details: A375 cell line (melanoma), phospho-ERK levels, compounds incubated 1 hour at 37° C.
Procedure: To investigate whether a compound is able to inhibit the activity of MEK in cells, a mechanism-based assay using A375 cell line (melanoma) was developed. In this assay (AlphaScreen, PerkinElmer), inhibition of MEK was detected by reduced ERK phosphorylation. A375 cells were cultured in a tissue culture flask to 80% confluence in DMEM plus 10% fetal bovine serum. Cells were collected and plated onto 96 well culture plates at 3×10^4 cells/well. Plates were incubated overnight at 37° C. with 5% CO2 to allow cells to adhere. Compounds were added to the plates and incubated at 37° C. for 1 hour. After removing the medium, 100 μl of cell lysis buffer were added to each well and 4 μl of cell lysate were transferred into a 384 well white Proxiplate (PerkinElmer). The phospho-ERK levels were determined by following the standard protocol supplied with the PerkinElmer SureFire Phospho-ERK 1/2 Assay Kit®. Plates were read out by EnVision (PerkinElmer). The data were analyzed using GraphPad Prism.

T1 sequence (Q02750 whole entry, species assumed): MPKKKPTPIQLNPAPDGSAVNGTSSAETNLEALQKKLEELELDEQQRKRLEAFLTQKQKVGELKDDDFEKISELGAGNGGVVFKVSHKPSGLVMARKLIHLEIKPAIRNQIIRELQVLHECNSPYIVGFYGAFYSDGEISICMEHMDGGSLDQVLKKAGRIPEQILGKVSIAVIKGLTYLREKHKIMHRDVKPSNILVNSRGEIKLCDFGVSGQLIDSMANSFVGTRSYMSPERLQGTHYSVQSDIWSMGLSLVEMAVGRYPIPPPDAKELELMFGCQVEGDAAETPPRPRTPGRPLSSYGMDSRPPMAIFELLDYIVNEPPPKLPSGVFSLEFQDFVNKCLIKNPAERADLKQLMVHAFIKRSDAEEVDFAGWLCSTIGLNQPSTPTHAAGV

| SMILES | IC50 (Mek1) [nM] | IC50 (MEK) [nM] |
| --- | --- | --- |
| COc1c(C(=O)NOCCO)c(Nc2ccc(I)cc2F)n(C)c(=O)c1C | < 100 | < 100 |
| Cn1c(Nc2ccc(I)cc2F)c(C(=O)NOCCO)c2occc2c1=O | < 100 | < 100 |
| Cn1c(Nc2ccc(I)cc2Cl)c(C(=O)NOCCO)c2occc2c1=O | < 100 | < 100 |
| Cn1c(Nc2ccc(I)cc2F)c(C(=O)NCCCO)c2occc2c1=O | < 5000 | < 100 |
| Cn1c(Nc2ccc(I)cc2F)c(C(=O)NOCCO)c2sccc2c1=O | < 1000 | < 100 |
| Cc1nc2c(=O)n(C)c(Nc3ccc(I)cc3F)c(C(=O)NOCCO)c2o1 | < 1000 | < 100 |

Results, then the compound that gave them:

| IC50 (Mek1) [nM] | IC50 (MEK) [nM] | SMILES |
| --- | --- | --- |
| < 100 | < 100 | Cn1c(Nc2ccc(I)cc2F)c(C(=O)NOC[C@H](O)CO)c2occc2c1=O |
| < 5000 | < 100 | Cc1noc2c(C(=O)NOCCO)c(Nc3ccc(I)cc3F)n(C)c(=O)c12 |
| < 1000 | < 100 | Cc1coc2c(C(=O)NOCCO)c(Nc3ccc(I)cc3F)n(C)c(=O)c12 |
| < 5000 | < 5000 | Cn1c(Nc2ccc(I)cc2F)c(C(=O)NOCCO)c2scnc2c1=O |
